Results from patent US20020052000A1, “Diagnostics for and mediators of inflammatory disorders” (priority 1996, published 2002).

Assays:
ICAM-1 [1] = assay: Cell surface ICAM-1 expression on HAEC by ELISA; format: cell-based, human; settings: for induction of cell surface ICAM expression: HAEC exposed 16 hr
Method: In a small scale synthesis reaction, sLO converted 250 uM linoleic acid (LA) into 13-HpODE within the first hour of room temperature incubation. During the subsequent 3 days incubation, 13-HpODE presumably oxidatively modified the enzyme and generating epitopes on the enzyme which can elicit biological s activity such as the expression of cell surface ICAM on HAEC as shown in ELISA assay depicted in FIG. 11. […] In the large scale synthesis reaction, only in the presence of the 13-HpODE generating system did the sLO become active as shown in FIG. 12. sLO negative control represented the sLO enzyme incubated with buffer alone for the extended period of time. We have confirmed the oxSLO synthesized by either method are functionally and immunologically identical. Furthermore, we have determined that formation of a biologically activity is protein specific. Reaction of rabbit serum albumin using the large or small scale oxykine reaction generates immunoreactive but not biologically active products.
(§1) It was investigated whether the oxidative modification of rabbit serum albumin RSA by linoleic hydroperoxide alters the structural or biological property of an element (peptide or nonpeptide) in this material, conferring upon it a biological function as a vascular endothelial cell inflammatory signal. Using oxidatively modified RSA (oxRSA) prepared as described in Example 1, cultured human aortic endothelial cells were exposed for 12 hours with a range of oxRSA concentrations from 1 to 100 nM (nanomolar), and assayed for the cell surface expression of the inducible adhesion molecules VCAM-1, ICAM-1 or the constituitively expressed adhesion molecule ICAM-2 by ELISA assay. […] Furthermore, limulus assay for LPS in the oxRSA preparation was below detection. Constituitively expressed ICAM-2 was unaffected.

VCAM-1 [2] = settings: cited from earlier work; for induction of cell-surface expression of VCAM-1: human aortic endothelial cells
ICAM-1 [3] = settings: human aortic endothelial cells; cited from earlier work
E-selectin = settings: human aortic endothelial cells; cited from earlier work
anti-LOOH/RSA antibody = assay: ELISA recognition of modified proteins/peptides by anti-LOOH/RSA antibody; format: binding, rabbit
Method: Using ELISA, it was investigated whether the LOOH/RSA antibody recognized the LOOH/modified protein and unmodified protein. Unmodified IgG-free RSA was used as control. incubation at 37° C., wells were washed with PBS three times. Goat anti-rabbit IgG conjugated with alkaline phosphatase was diluted to 1:38,000 and added. After 2 hrs incubation at 37 °C, wells were washed again and p-nitrophenolphosphate was added. Color development was determined by a plate reader (Anthos II).
Microtiter wells were coated with increasing concentrations of unmodified, or modified peptide. After blocking wells with non-fat milk powder, 100 μl of 1:250 dilution of anti-LOOH/RSA antibody was added to each well. After wash, anti-rabbit IgG conjugated with alkaline phosphatase was added to each well. After adding substrate p-nitrophenyl phosphate, the OD was measured at 405 nm using a microplate reader. Values represent averages of a triplicate set of optical density readings of wells from one of at least 2 separate trials. 20 Western blot analysis of the aldehyde- and LOOH-modified peptide confirmed that none of the aldehyde-modified synthetic proteins were recognized to any significant extent, whereas LOOH-modified peptide was recognized by the antibody.

VCAM-1 [4] = assay: Cell surface VCAM-1 expression on HAEC by ELISA; format: cell-based, human
Source text: (§2) The ELISA data is supported by the Northern Blot data as illustrated in FIG. 15. […] Within 2-6 hr of stimulation, the mRNA level of the indicated genes all reached a steady state.
as §1

ICAM-2 = assay: Cell surface ICAM-2 expression on HAEC by ELISA; format: cell-based, human; settings: 12 hours
Method: as §1

VCAM-1 mRNA = assay: Northern blot VCAM-1 mRNA accumulation in HAEC; format: cell-based, human
Method: as §2
(§3) It was next investigated whether the induction of VCAM-1 and ICAM-1 cell surface expression by ox-RSA is due at least in part to changes in mRNA accumulation. Northern filter analysis was performed from RNA isolated from HAEC exposed for 4 hours With either TNFa (100 U/ml) or oxRSA (25 nM). Similar to that observed at the protein level, VCAM-mRNA levels were induced by ox-RSA to levels approximately 30-40% observed for TNFa.

ICAM-1 mRNA = assay: Northern blot ICAM-1 mRNA accumulation in HAEC; format: cell-based, human
Method: as §2, §3

[5] = system: NF-kB like DNA binding activity; assay: Gel mobility shift assay, NF-kB-like binding sites of VCAM-1 promoter; format: cell-based, human; settings: HAEC, two hours; TNFa 100 U/ml or oxRSA 25 nM
Method: To determine whether oxRSA modulated nuclear regulatory events associated with redox sensitive VCAM-1 gene expression, cultured human aortic endothelial cells were exposed or not (CTL) for two hours to TNFa (100 U/ml) or 25 nM of the oxykine RSA-LOOH (oxRSA), nuclear extracts prepared and gel mobility shift assays performed using 32P-labeled kL0kR, the tandem NF-kB-like binding sites of the human VCAM-1 promoter. Appropriate cold competitor and supershift controls using anti-p50 and anti-p65 antisera (R&D Systems) were performed to establish the DNA sequence binding specificity of the NF-kB complex band. Both TNF and oxRSA inducted NF-kB like DNA binding activity.

MCP-1 mRNA = assay: Northern blot MCP-1 mRNA accumulation in HAEC; format: cell-based, human
Source text: as §2

[6] = VCAM-1 and ICAM-1 induction, polymyxin B 10 ug/ml

O=C(O)CN(CCN(CC(=O)O)CC(=O)O)CC(=O)O [EDTA]
effect of addition on ICAM-1 induction by the oxykine (ICAM-1 [1]): no effect

CCCCC/C=C\C/C=C\CCCCCCCC(=O)O [LA, linoleic acid]
induction of cell surface ICAM expression (ICAM-1 [1]): did not become active | induction of cell-surface expression of VCAM-1 (VCAM-1 [2]): induce | induction of cell-surface expression of ICAM-1 (ICAM-1 [3]): not | induction of cell-surface expression of E-selectin (E-selectin): not

S=C(S)N1CCCC1 [PDTC, pyrrolidine dithiocarbamate]
effect on induction of VCAM-1 by PUFAs and their fatty acid hydroperoxides (VCAM-1 [2]): suppressed

Cc1c(C)c2c(c(C)c1O)CCC(C)(C(=O)O)O2 (centres unmarked) [Trolox]
effect of addition on ICAM-1 induction by the oxykine (ICAM-1 [1]): no effect

CCCCC/C=C\C/C=C\C/C=C\C/C=C\CCCC(=O)O [arachidonic acid]
induction of cell-surface expression of VCAM-1 (VCAM-1 [2]): induce | induction of cell-surface expression of ICAM-1 (ICAM-1 [3]): not | induction of cell-surface expression of E-selectin (E-selectin): not

CCCCCCCC/C=C\CCCCCCCC(=O)O [oleic acid]
induction of cell-surface expression of VCAM-1 (VCAM-1 [2]): do not induce | induction of cell-surface expression of ICAM-1 (ICAM-1 [3]): do not induce | induction of cell-surface expression of E-selectin (E-selectin): do not induce

CC(C)(Sc1cc(C(C)(C)C)c(O)c(C(C)(C)C)c1)Sc1cc(C(C)(C)C)c(O)c(C(C)(C)C)c1 [probucol]
effect of addition on ICAM-1 induction by the oxykine (ICAM-1 [1]): no effect

CCCCCCCCCCCCCCCCCC(=O)O [stearic acid]
induction of cell-surface expression of VCAM-1 (VCAM-1 [2]): do not induce | induction of cell-surface expression of ICAM-1 (ICAM-1 [3]): do not induce | induction of cell-surface expression of E-selectin (E-selectin): do not induce

RSA: unmodified IgG-free rabbit serum albumin used as control
recognition by the antibody in ELISA (anti-LOOH/RSA antibody): barely recognized

YVTKSYNETKIKFDKYKAKSHEDEL [Native peptide]
recognition by the antibody in ELISA (anti-LOOH/RSA antibody): failed to recognize

linoleyl 194 hydroperoxide
induction of cell-surface expression of VCAM-1 (VCAM-1 [2]): induce | induction of cell-surface expression of ICAM-1 (ICAM-1 [3]): not | induction of cell-surface expression of E-selectin (E-selectin): not

oxRSA: rabbit serum albumin oxidatively modified by linoleic hydroperoxide (13-HPODE), Example 1
concentration corresponding to least amount recognized (anti-LOOH/RSA antibody): < 2 nM | least amount recognized by the antibody (anti-LOOH/RSA antibody; antibody 1:250, above control protein): 10 ng | induction of ICAM-1 as percent of maximal TNF-a induced signal (ICAM-1 [1]; HAEC, 12 hours, 1 to 100 nM): 80% | EC50 (ICAM-1 [1]; HAEC, 12 hours, read-out: approximate EC50 for ICAM-1 induction): 10 to 15 nM | induction of VCAM-1 as percent of maximal TNF-a induced signal (VCAM-1 [4]; HAEC, 12 hours, 1 to 100 nM): 40% | EC50 (VCAM-1 [4]; HAEC, 12 hours, read-out: approximate EC50 for VCAM-1 induction): 10 to 15 nM | effect on constitutively expressed ICAM-2 (ICAM-2): unaffected | VCAM-mRNA level relative to that observed for TNFa (VCAM-1 mRNA; 4 hours, 25 nM, TNFa 100 U/ml): 30-40% | ICAM-1 mRNA induction (ICAM-1 mRNA; 4 hours, 25 nM): induced | NF-kB like DNA binding activity [5]: inducted

polymyxin B
effect on LPS induction (VCAM-1 [4]; [6]): fully inhibited | effect on oxRSA activation (VCAM-1 [4]; [6]): no effect

B1: soybean lipoxygenase (protein, UniProt P08170 1-839, looked up)
Seed linoleate …: MFSAGHKIKGTVVLMPKNELEVNPDGSAVDNLNAFLGRSVSLQLISATKADAHGKGKVGKDTFLEGINTSLPTLGAGESAFNIHFEWDGSMGIPGAFYIKNYMQVEFFLKSLTLEAISNQGTIRFVCNSWVYNTKLYKSVRIFFANHTYVPSETPAPLVSYREEELKSLRGNGTGERKEYDRIYDYDVYNDLGNPDKSEKLARPVLGGSSTFPYPRRGRTGRGPTVTDPNTEKQGEVFYVPRDENLGHLKSKDALEIGTKSLSQIVQPAFESAFDLKSTPIEFHSFQDVHDLYEGGIKLPRDVISTIIPLPVIKELYRTDGQHILKFPQPHVVQVSQSAWMTDEEFAREMIAGVNPCVIRGLEEFPPKSNLDPAIYGDQSSKITADSLDLDGYTMDEALGSRRLFMLDYHDIFMPYVRQINQLNSAKTYATRTILFLREDGTLKPVAIELSLPHSAGDLSAAVSQVVLPAKEGVESTIWLLAKAYVIVNDSCYHQLMSHWLNTHAAMEPFVIATHRHLSVLHPIYKLLTPHYRNNMNINALARQSLINANGIIETTFLPSKYSVEMSSAVYKNWVFTDQALPADLIKRGVAIKDPSTPHGVRLLIEDYPYAADGLEIWAAIKTWVQEYVPLYYARDDDVKNDSELQHWWKEAVEKGHGDLKDKPWWPKLQTLEDLVEVCLIIIWIASALHAAVNFGQYPYGGLIMNRPTASRRLLPEKGTPEYEEMINNHEKAYLRTITSKLPTLISLSVIEILSTHASDEVYLGQRDNPHWTSDSKALQAFQKFGNKLKEIEEKLVRRNNDPSLQGNRLGPVQLPYTLLYPSSEEGLTFRGIPNSISI
notes: unmodified soybean lipoxygenase, negative control
induction of cell surface ICAM expression (ICAM-1 [1]): did not become active | induction of cell surface ICAM expression (ICAM-1 [1]; listed as unmodified sLO): failed to activate | VCAM-1 mRNA (VCAM-1 mRNA; 0.008 ug/ml): −0.14 arbitrary units | VCAM-1 mRNA (VCAM-1 mRNA; 0.08 ug/ml): 0.12 arbitrary units | VCAM-1 mRNA (VCAM-1 mRNA; 0.8 ug/ml): 3.36 arbitrary units | VCAM mRNA accumulation (VCAM-1 mRNA; Northern blot, 4 hr): not | ICAM-1 mRNA (ICAM-1 mRNA; 0.008 ug/ml): −0.51 arbitrary units | ICAM-1 mRNA (ICAM-1 mRNA; 0.08 ug/ml): −0.09 arbitrary units | ICAM-1 mRNA (ICAM-1 mRNA; 0.8 ug/ml): 3.14 arbitrary units | MCP-1 mRNA (MCP-1 mRNA; 0.008 ug/ml): 1.12 arbitrary units | MCP-1 mRNA (MCP-1 mRNA; 0.08 ug/ml): 3.1 arbitrary units | MCP-1 mRNA (MCP-1 mRNA; 0.8 ug/ml): 12.34 arbitrary units | MCP-1 mRNA accumulation (MCP-1 mRNA; Northern blot): not
